# ChEMBL document CHEMBL1201862, “PubChem BioAssay data set” (2004)
#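 Following 48 hours of exposure in 96-well plates, responses at five concentrations were used to interpolate endpoints linearly. Abbreviation: GI50, concentration required for 50% inhibition of growth.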 Active and inactive are the calls of the source. Cut-off read from the data, not from the text of the source: active = GI50 up to about 1.1 µM and inactive = higher.
# Experiments:
# Assay in all cases: NCI-60 cell line screen, 48 h
# 786-0 = tested on: 786-0
# A498 = tested on: A498
# A549 = tested on: A549
# ACHN = tested on: ACHN
# CAKI-1 = tested on: CAKI-1
# CCRF-CEM = tested on: CCRF-CEM
# COLO 205 = tested on: COLO 205
# DU-145 = tested on: DU-145
# EKVX = tested on: EKVX
# HCC 2998 = tested on: HCC 2998
# HCT-116 = tested on: HCT-116
# HCT-15 = tested on: HCT-15
# HL-60 = tested on: HL-60
# HOP-62 = tested on: HOP-62
# HOP-92 = tested on: HOP-92
# HT-29 = tested on: HT-29
# IGROV-1 = tested on: IGROV-1
# K562 = tested on: K562
# KM12 = tested on: KM12
# LOX IMVI = tested on: LOX IMVI
# M14 = tested on: M14
# MCF7 = tested on: MCF7
# MDA-MB-231 = tested on: MDA-MB-231
# MDA-MB-435 = tested on: MDA-MB-435
# MDA-N = tested on: MDA-N
# MOLT-4 = tested on: MOLT-4
# Malme-3M = tested on: Malme-3M
# NCI-H226 = tested on: NCI-H226
# NCI-H23 = tested on: NCI-H23
# NCI-H522 = tested on: NCI-H522
# NCI/ADR-RES = tested on: NCI/ADR-RES
# OVCAR-3 = tested on: OVCAR-3
# OVCAR-4 = tested on: OVCAR-4
# OVCAR-5 = tested on: OVCAR-5
# OVCAR-8 = tested on: OVCAR-8
# PC-3 = tested on: PC-3
# RPMI-8226 = tested on: RPMI-8226
# RXF 393 = tested on: RXF 393
# SF-295 = tested on: SF-295
# SF-539 = tested on: SF-539
# SK-MEL-28 = tested on: SK-MEL-28
# SK-MEL-2 = tested on: SK-MEL-2
# SK-MEL-5 = tested on: SK-MEL-5
# SK-OV-3 = tested on: SK-OV-3
# SN12C = tested on: SN12C
# SNB-19 = tested on: SNB-19
# SNB-75 = tested on: SNB-75
# SW-620 = tested on: SW-620
# T47D = tested on: T47D
# TK-10 = tested on: TK-10
# U-251 = tested on: U-251
# UACC-257 = tested on: UACC-257
# UACC-62 = tested on: UACC-62
# UO-31 = tested on: UO-31
# Hs-578T = tested on: Hs-578T
# NCI-H460 = tested on: NCI-H460
# SF-268 = tested on: SF-268
# SR = tested on: SR
smiles,measurement,setting,value
CCN(CC)CCCNc1nc(=O)[nH]c(C)c1C(=O)Nc1c2ccccc2nc2ccccc12,GI50,786-0,11300 nM (inactive)
same,GI50,A498,5220 nM (inactive)
same,GI50,A549,4450 nM (inactive)
same,GI50,ACHN,10200 nM (inactive)
same,GI50,CAKI-1,7280 nM (inactive)
same,GI50,CCRF-CEM,5680 nM (inactive)
same,GI50,COLO 205,8790 nM (inactive)
same,GI50,DU-145,12800 nM (inactive)
same,GI50,EKVX,12200 nM (inactive)
same,GI50,HCC 2998,8790 nM (inactive)
same,GI50,HCT-116,5410 nM (inactive)
same,GI50,HCT-15,4800 nM
same,GI50,HL-60,5010 nM (inactive)
same,GI50,HOP-62,24800 nM (inactive)
same,GI50,HOP-92,2630 nM (inactive)
same,GI50,HT-29,7410 nM (inactive)
same,GI50,IGROV-1,6850 nM (inactive)
same,GI50,K562,4750 nM (inactive)
same,GI50,KM12,3560 nM (inactive)
same,GI50,LOX IMVI,8430 nM (inactive)
same,GI50,M14,15500 nM (inactive)
same,GI50,MCF7,7780 nM (inactive)
same,GI50,MDA-MB-231,12900 nM (inactive)
same,GI50,MDA-MB-435,5210 nM (inactive)
same,GI50,MDA-N,4860 nM (inactive)
same,GI50,MOLT-4,4280 nM (inactive)
same,GI50,Malme-3M,7870 nM (inactive)
same,GI50,NCI-H226,14900 nM (inactive)
same,GI50,NCI-H23,7530 nM (inactive)
same,GI50,NCI-H522,3630 nM (inactive)
same,GI50,NCI/ADR-RES,12900 nM (inactive)
same,GI50,OVCAR-3,6140 nM (inactive)
same,GI50,OVCAR-4,3960 nM (inactive)
same,GI50,OVCAR-5,36200 nM (inactive)
same,GI50,OVCAR-8,21700 nM (inactive)
same,GI50,PC-3,17100 nM (inactive)
same,GI50,RPMI-8226,5900 nM (inactive)
same,GI50,RXF 393,27000 nM (inactive)
same,GI50,SF-295,5970 nM (inactive)
same,GI50,SF-539,11900 nM (inactive)
same,GI50,SK-MEL-28,12300 nM (inactive)
same,GI50,SK-MEL-2,20800 nM (inactive)
same,GI50,SK-MEL-5,10800 nM (inactive)
same,GI50,SK-OV-3,10800 nM (inactive)
same,GI50,SN12C,15400 nM (inactive)
same,GI50,SNB-19,8710 nM (inactive)
same,GI50,SNB-75,10100 nM (inactive)
same,GI50,SW-620,21400 nM (inactive)
same,GI50,T47D,10700 nM (inactive)
same,GI50,TK-10,17100 nM (inactive)
same,GI50,U-251,12600 nM (inactive)
same,GI50,UACC-257,15600 nM (inactive)
same,GI50,UACC-62,6320 nM (inactive)
same,GI50,UO-31,5600 nM (inactive)
CC(=O)O[C@H]1C(=O)[C@@]2(C)C(C(OC(=O)c3ccccc3)[C@]3(O)CC(OC(=O)[C@H](OC(=O)CCC(=O)O)C(NC(=O)c4ccccc4)c4ccccc4)C(C)=C1C3(C)C)C1(OC(C)=O)COC1C[C@@H]2O (stereo partly drawn),GI50,A549,< 19.9 nM (active)
same,GI50,CAKI-1,3750 nM (inactive)
same,GI50,COLO 205,< 10 nM (active)
same,GI50,HCC 2998,19.1 nM (active)
same,GI50,HCT-15,1530 nM
same,GI50,HT-29,< 10 nM (active)
same,GI50,Hs-578T,< 10 nM (active)
same,GI50,IGROV-1,10.3 nM (active)
same,GI50,K562,< 10 nM (active)
same,GI50,KM12,< 10 nM (active)
same,GI50,LOX IMVI,< 12.2 nM (active)
same,GI50,MOLT-4,< 15.6 nM (active)
same,GI50,NCI-H460,< 10 nM (active)
same,GI50,OVCAR-3,< 10 nM (active)
same,GI50,OVCAR-4,17100 nM (inactive)
same,GI50,PC-3,< 10 nM (active)
same,GI50,SF-268,< 16.6 nM (active)
same,GI50,SK-MEL-5,< 10 nM (active)
same,GI50,SNB-19,30.6 nM (active)
same,GI50,SR,< 10 nM (active)
same,GI50,SW-620,< 10 nM (active)
same,GI50,T47D,< 20.3 nM (active)
same,GI50,TK-10,265 nM (active)
same,GI50,U-251,< 10 nM (active)
COC1=CC(=O)c2c(cc(COP(N)(=O)N(CCBr)CCBr)n2C)C1=O (stereo not drawn),GI50,786-0,< 10 nM (active)
same,GI50,A498,1260 nM (inactive)
same,GI50,A549,< 10 nM (active)
same,GI50,ACHN,< 10 nM (active)
same,GI50,CAKI-1,< 10 nM (active)
same,GI50,CCRF-CEM,< 10 nM (active)
same,GI50,COLO 205,24.2 nM (active)
same,GI50,DU-145,< 10 nM (active)
same,GI50,EKVX,21.2 nM (active)
same,GI50,HCT-116,< 10 nM (active)
same,GI50,HCT-15,242 nM
same,GI50,HL-60,11.3 nM (active)
same,GI50,HT-29,12 nM (active)
same,GI50,IGROV-1,18.8 nM (active)
same,GI50,K562,135 nM (active)
same,GI50,KM12,1000 nM (active)
same,GI50,LOX IMVI,< 10 nM (active)
same,GI50,M14,< 10 nM (active)
same,GI50,MCF7,< 10 nM (active)
same,GI50,MDA-MB-231,2100 nM (inactive)
same,GI50,MDA-MB-435,1160 nM (inactive)
same,GI50,MDA-N,242 nM (active)
same,GI50,MOLT-4,< 10 nM (active)
same,GI50,Malme-3M,308 nM (active)
same,GI50,NCI-H226,< 10 nM (active)
same,GI50,NCI-H23,< 10 nM (active)
same,GI50,NCI-H460,< 10 nM (active)
same,GI50,NCI-H522,< 10 nM (active)
same,GI50,NCI/ADR-RES,184 nM (active)
same,GI50,OVCAR-3,82.2 nM (active)
same,GI50,OVCAR-4,1660 nM (inactive)
same,GI50,OVCAR-5,104 nM (active)
same,GI50,OVCAR-8,< 10 nM (active)
same,GI50,PC-3,1110 nM (active)
same,GI50,RPMI-8226,< 10 nM (active)
same,GI50,RXF 393,71.9 nM (active)
same,GI50,SF-268,< 10 nM (active)
same,GI50,SF-295,< 10 nM (active)
same,GI50,SF-539,< 10 nM (active)
same,GI50,SK-MEL-28,1560 nM (inactive)
same,GI50,SK-MEL-2,1700 nM (inactive)
same,GI50,SK-MEL-5,418 nM (active)
same,GI50,SK-OV-3,13.7 nM (active)
same,GI50,SN12C,< 10 nM (active)
same,GI50,SNB-19,1300 nM (inactive)
same,GI50,SNB-75,< 10 nM (active)
same,GI50,SR,< 10 nM (active)
same,GI50,SW-620,< 10 nM (active)
same,GI50,T47D,< 10 nM (active)
same,GI50,TK-10,484 nM (active)
same,GI50,U-251,< 10 nM (active)
same,GI50,UACC-257,1200 nM (inactive)
same,GI50,UACC-62,< 10 nM (active)
same,GI50,UO-31,131 nM (active)
Nc1ccn([C@@H]2CS[C@H](CO)O2)c(=O)n1 [LAMIVUDINE],GI50,NCI-H23,> 100000 nM (inactive)
COc1cc(O)c2c(=O)c(OC)c(-c3ccc(OC)c(OC)c3)oc2c1 [RETUSIN],GI50,A498,16100 nM (inactive)
same,GI50,CAKI-1,6170 nM (inactive)
same,GI50,CCRF-CEM,> 100000 nM (inactive)
same,GI50,COLO 205,> 100000 nM (inactive)
same,GI50,HCT-15,> 100000 nM
same,GI50,MDA-MB-435,> 100000 nM (inactive)
same,GI50,NCI-H460,20000 nM (inactive)
same,GI50,NCI-H522,2790 nM (inactive)
same,GI50,RPMI-8226,87700 nM (inactive)
same,GI50,SK-OV-3,5020 nM (inactive)
same,GI50,SW-620,> 100000 nM (inactive)
same,GI50,TK-10,> 100000 nM (inactive)
same,GI50,U-251,15100 nM (inactive)
same,GI50,UACC-257,> 100000 nM (inactive)
same,GI50,UO-31,> 100000 nM (inactive)
